Structures can show the parent of a compound that is named as a salt.

The source of these data is patent publication US20090264433A1, “Compounds, Compositions and Methods Comprising Triazine Derivatives” (Institute for OneWorld Health, priority 2008, published 2009).

For the assay, the target named is T1, CFTR channel in human colonic T84 cells (Homo sapiens, UniProt P13569).
T1 construct: results in the phosphorylation and opening of CFTR anion channels; host or cells: human colonic T84 cells
T1 sequence (P13569 whole entry): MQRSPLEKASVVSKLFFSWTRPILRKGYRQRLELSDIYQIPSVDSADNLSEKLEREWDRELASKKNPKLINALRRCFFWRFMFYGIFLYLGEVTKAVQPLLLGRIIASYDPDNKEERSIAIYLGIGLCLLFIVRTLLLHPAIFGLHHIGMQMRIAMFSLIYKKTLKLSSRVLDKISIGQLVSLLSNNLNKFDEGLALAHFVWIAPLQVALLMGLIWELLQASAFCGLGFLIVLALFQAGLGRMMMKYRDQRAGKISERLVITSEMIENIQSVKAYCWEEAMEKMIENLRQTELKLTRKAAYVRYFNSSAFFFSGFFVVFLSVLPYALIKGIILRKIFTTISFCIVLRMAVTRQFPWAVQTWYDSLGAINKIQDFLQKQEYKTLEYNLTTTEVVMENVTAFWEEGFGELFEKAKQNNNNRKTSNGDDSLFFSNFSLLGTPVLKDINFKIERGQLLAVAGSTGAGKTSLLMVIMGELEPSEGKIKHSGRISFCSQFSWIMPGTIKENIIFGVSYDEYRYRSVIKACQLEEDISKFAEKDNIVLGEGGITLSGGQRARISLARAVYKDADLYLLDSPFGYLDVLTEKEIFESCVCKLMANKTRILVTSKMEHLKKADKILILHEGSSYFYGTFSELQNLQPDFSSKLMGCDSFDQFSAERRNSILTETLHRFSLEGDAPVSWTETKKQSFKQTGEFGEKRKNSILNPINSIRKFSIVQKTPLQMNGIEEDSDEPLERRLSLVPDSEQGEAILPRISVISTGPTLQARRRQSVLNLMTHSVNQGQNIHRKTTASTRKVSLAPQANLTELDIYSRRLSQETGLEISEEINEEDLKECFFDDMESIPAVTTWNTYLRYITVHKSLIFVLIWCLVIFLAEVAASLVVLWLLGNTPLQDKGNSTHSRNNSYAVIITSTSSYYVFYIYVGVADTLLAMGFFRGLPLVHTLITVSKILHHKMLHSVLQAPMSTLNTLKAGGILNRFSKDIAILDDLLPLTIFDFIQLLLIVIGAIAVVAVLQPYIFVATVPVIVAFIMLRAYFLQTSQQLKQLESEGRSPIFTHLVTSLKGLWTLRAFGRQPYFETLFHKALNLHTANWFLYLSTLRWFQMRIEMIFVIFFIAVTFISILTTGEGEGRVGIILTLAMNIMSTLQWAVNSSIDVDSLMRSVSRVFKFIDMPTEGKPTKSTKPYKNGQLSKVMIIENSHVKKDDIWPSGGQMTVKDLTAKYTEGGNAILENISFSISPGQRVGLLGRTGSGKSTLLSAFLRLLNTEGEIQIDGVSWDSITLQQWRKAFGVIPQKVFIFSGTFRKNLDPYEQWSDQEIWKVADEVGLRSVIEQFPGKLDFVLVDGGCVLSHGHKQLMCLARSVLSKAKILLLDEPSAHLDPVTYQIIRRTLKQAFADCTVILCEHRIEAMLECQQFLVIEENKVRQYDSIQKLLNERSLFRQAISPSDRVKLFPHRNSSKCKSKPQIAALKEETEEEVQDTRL
Briefly: T84 assay (FLIPR membrane potential dye, forskolin/IBMX-stimulated CFTR). The assay is classed as cell-based. The settings on record: average of at least 2 runs unless annotated n = 1. In outline: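 T84 cells (25,000/well, grown overnight) were washed in HBSS with 10 mM Hepes, then loaded with FLIPR Red membrane potential dye for 45 min with or without compound. CFTR was stimulated with 10 μM forskolin plus 100 μM IBMX after a 10 s baseline. Depolarization was tracked as a fluorescence increase, read every second for 150 s.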
As for `Oc1c(Cl)cc(-c2cnc(OCc3ccc(CNCc4ccc(F)cc4)cc3)nn2)cc1Cl` [Compound 164, 2,6-dichloro-4-(3-(4-((4-fluorobenzylamino)methyl)benzyloxy)-1,2,4-triazin-6-yl)phenol], half-maximal inhibition (IC50) was put at 28.5 µM.

On to `CN(Cc1ccc(F)cc1)Cc1ccc(COc2ncc(-c3cc(Cl)c(O)c(Cl)c3)nn2)cc1` [Compound 165, 2,6-dichloro-4-(3-(4-(((4-fluorobenzyl)(methyl)amino)methyl)benzyloxy)-1,2,4-triazin-6-yl)phenol], for which the IC50 (usually the midpoint of a concentration-inhibition curve) is 2.46 µM.

In turn, `Oc1c(Cl)cc(-c2cnc(OCc3ccc(CN4CCc5ccccc5C4)cc3)nn2)cc1Cl` [Compound 166] showed an IC50 of 3.08 µM.

As for `Oc1c(Cl)cc(-c2cnc(OCc3ccc(CN(Cc4ccccc4)Cc4ccccc4)cc3)nn2)cc1Cl` [Compound 167, 2,6-dichloro-4-(3-(4-((dibenzylamino)methyl)benzyl-oxy)-1,2,4-triazin-6-yl)phenol], half-maximal inhibition (IC50) was put at 6.61 µM.

Take `Oc1c(Cl)cc(-c2cnc(OCc3ccc(CN4CCC(Cc5ccccc5)CC4)cc3)nn2)cc1Cl` [Compound 168, 4-(3-(4-((4-benzylpiperidin-1-yl)methyl)benzyloxy)-1,2,4-triazin-6-yl)-2,6-dichlorophenol]: the IC50 is 13.9 µM.

Compound `Oc1c(Cl)cc(-c2cnc(OCc3ccc(CNCc4ccc(C(F)(F)F)nc4)cc3)nn2)cc1Cl` [Compound 169, 2,6-dichloro-4-(3-(4-(((6-(trifluoromethyl)pyridin-3-yl)methylamino)methyl)benzyl-oxy)-1,2,4-triazin-6-yl)phenol] gave a concentration for half-maximal inhibition (IC50) of 7.77 µM.

The compound `CN(Cc1ccc(COc2ncc(-c3cc(Cl)c(O)c(Cl)c3)nn2)cc1)Cc1cncc(Br)c1` [Compound 170, 4-(3-(4-((((5-bromopyridin-3-yl)methyl)(methyl)amino)methyl)benzyloxy)-1,2,4-triazin-6-yl)-2,6-dichlorophenol] displayed an IC50 of 2.81 µM.

As for `CN(Cc1ccc(COc2ncc(-c3cc(Cl)c(O)c(Cl)c3)nn2)cc1)C(c1ccccc1)c1ccccc1` [Compound 171, 4-(3-(4-((benzhydryl(methyl)amino)methyl)benzyloxy)-1,2,4-triazin-6-yl)-2,6-dichlorophenol], the IC50 was determined as 14.4 µM.

`OCCN(Cc1ccc(COc2ncc(-c3cc(Cl)c(O)c(Cl)c3)nn2)cc1)Cc1ccccc1Cl` [Compound 172, 2,6-dichloro-4-(3-(4-(((2-chlorobenzyl)(2-hydroxyethyl)amino)methyl)benzyl-ozyloxy)-1,2,4-triazin-6-yl)phenol] showed a half-inhibitory concentration (IC50) of 3.36 µM.

As to `Oc1c(Cl)cc(-c2cnc(OCc3ccc(CN4CCC(O)(c5ccccc5)CC4)cc3)nn2)cc1Cl` [Compound 173, 1-(4-((6-(3,5-dichloro-4-hydroxyphenyl)-1,2,4-triazin-3-yloxy)methyl)benzyl)-4-phenylpiperidin-4-ol], it took 28.4 µM to reach half-maximal inhibition (IC50).

`Oc1c(Cl)cc(-c2cnc(OCc3ccc(CN4CCC(C(O)(c5ccccc5)c5ccccc5)CC4)cc3)nn2)cc1Cl` [Compound 174, 2,6-dichloro-4-(3-(4-((4-(hydroxydiphenylmethyl)piperidin-1-yl)methyl)benzyloxy)-1,2,4-triazin-6-yl)phenol, formate salt]: the IC50 is 15.1 µM.

Turning to `CN(Cc1ccncc1)Cc1ccc(COc2ncc(-c3cc(Cl)c(O)c(Cl)c3)nn2)cc1` [Compound 175, 2,6-dichloro-4-(3-(4-((methyl(pyridin-4-ylmethyl)amino)methyl)benzyl-oxy)-1,2,4-triazin-6-yl)phenol], the IC50 is 11.7 µM.

Turning to `CN(Cc1ccc(COc2ncc(-c3cc(Cl)c(O)c(Cl)c3)nn2)cc1)Cc1ccc(Oc2ccccn2)cc1` [Compound 176, 2,6-dichloro-4-(3-(4-((methyl(4-(pyridin-2-yloxy)benzyl)amino)methyl)benzyloxy)-1,2,4-triazin-6-yl)phenol], inhibition was half-maximal at 3.92 µM (IC50).

Turning to `CN(Cc1ccc(COc2ncc(-c3cc(Cl)c(O)c(Cl)c3)nn2)cc1)Cc1cccc(-c2ccncc2)c1` [Compound 177, 2,6-dichloro-4-(3-(4-((methyl(3-(pyridin-4-yl)benzyl)amino)methyl)benzyl-oxy)-1,2,4-triazin-6-yl)phenol], inhibition was half-maximal at 2.22 µM (IC50).

As for `Oc1c(Cl)cc(-c2cnc(OCc3ccc(CN4Cc5ccc(F)cc5C4)cc3)nn2)cc1Cl` [Compound 178, 2,6-dichloro-4-(3-(4-((5-fluoroisoindolin-2-yl)methyl)benzyloxy)-1,2,4-triazin-6-yl)phenol], inhibition was half-maximal at 3.31 µM (IC50).

`Oc1c(Cl)cc(-c2cnc(OCCc3ccc(F)cc3)nn2)cc1Cl` [Compound 179, 2,6-dichloro-4-(3-(4-fluorophenethoxy)-1,2,4-triazin-6-yl)phenol]: the IC50 stood at 2.33 µM.

`Oc1c(Cl)cc(-c2cnc(OCc3ccc(CN4CCc5ccc(Br)cc5C4)cc3)nn2)cc1Cl` [Compound 180] displayed an IC50 of 3.54 µM.

`CN(Cc1ccc(COc2ncc(-c3cc(Cl)c(O)c(Cl)c3)nn2)cc1)Cc1cccc2ccccc12` [Compound 181, 2,6-dichloro-4-(3-(4-((methyl(naphthalen-1-ylmethyl)amino)methyl)benzyl-oxy)-1,2,4-triazin-6-yl)phenol] showed an IC50 of 9.15 µM.

The compound `Oc1c(Cl)cc(-c2cnc(OCc3ccc(CN4CCCc5ccccc54)cc3)nn2)cc1Cl` [Compound 182] yielded an IC50 of 11.8 µM.

`CN(Cc1ccc(COc2ncc(-c3cc(Cl)c(O)c(Cl)c3)nn2)cc1)Cc1cccc(Cl)c1Cl` [Compound 183, 2,6-dichloro-4-(3-(4-(((2,3-dichlorobenzyl)(methyl)amino)methyl)benzyloxy)-1,2,4-triazin-6-yl)phenol] returned an IC50 of 14.6 µM.

Take `CN(Cc1ccc(COc2ncc(-c3cc(Cl)c(O)c(Cl)c3)nn2)cc1)Cc1ccc(F)c(F)c1` [Compound 184, 2,6-dichloro-4-(3-(4-(((3,4-difluorobenzyl)(methyl)amino)methyl)benzyloxy)-1,2,4-triazin-6-yl)phenol]: the IC50 stood at 4.94 µM.

Consider `CNC(=O)C1Cc2ccccc2CN1Cc1ccc(COc2ncc(-c3cc(Cl)c(O)c(Cl)c3)nn2)cc1` (stereo not shown) [Compound 185, 2-(4-((6-(3,5-dichloro-4-hydroxyphenyl)-1,2,4-triazin-3-yloxy)methyl)benzyl)-N-methyl-1,2,3,4-tetrahydroisoquinoline-3-carboxamide], for which it took 4.64 µM to reach half-maximal inhibition (IC50).

The compound `CN(Cc1ccc(COc2ncc(-c3cc(Cl)c(O)c(Cl)c3)nn2)cc1)Cc1cccc(Oc2ccccn2)c1` [Compound 186, 2,6-dichloro-4-(3-(4-((methyl(3-(pyridin-2-yloxy)benzyl)amino)methyl)benzyloxy)-1,2,4-triazin-6-yl)phenol] displayed an IC50 of 6.97 µM.

As to `CN(Cc1ccc(COc2ncc(-c3cc(Cl)c(O)c(Cl)c3)nn2)cc1)Cc1ccc(-c2ccncc2)cc1` [Compound 187, 2,6-dichloro-4-(3-(4-((methyl(4-(pyridin-4-yl)benzyl)amino)methyl)benzyl-oxy)-1,2,4-triazin-6-yl)phenol], 3.79 µM corresponded to half-maximal inhibition (IC50).

For `CC(C)(C)C(=O)N1CCN(Cc2ccc(COc3ncc(-c4cc(Cl)c(O)c(Cl)c4)nn3)cc2)CC1` [Compound 188, 1-(4-(4-((6-(3,5-dichloro-4-hydroxyphenyl)-1,2,4-triazin-3-yloxy)methyl)benzyl)piperazin1-yl)-2,2-dimethylpropan-1-one], the IC50 is 10.3 µM.

Compound `CN(Cc1ccc(COc2ncc(-c3cc(Cl)c(O)c(Cl)c3)nn2)cc1)Cc1ccc2ncccc2c1` [Compound 189, 2,6-dichloro-4-(3-(4-((methyl(quinolin-6-ylmethyl)amino)methyl)benzyl-oxy)-1,2,4-triazin-6-yl)phenol] came in with an IC50 of 4.72 µM.

The compound `CCN(CC)CC(NCc1ccc(COc2ncc(-c3cc(Cl)c(O)c(Cl)c3)nn2)cc1)c1ccccc1` (stereo not shown) [Compound 190, 2,6-dichloro-4-(3-(4-((2-(diethylamino)-1-phenylethylamino)methyl)benzyloxy)-1,2,4-triazin-6-yl)phenol] showed an IC50 of 21 µM.

For `OCCN(Cc1ccc(COc2ncc(-c3cc(Cl)c(O)c(Cl)c3)nn2)cc1)Cc1cccnc1` [Compound 191, 2,6-dichloro-4-(3-(4-(((2-hydroxyethyl)(pyridin-3-ylmethyl)amino)methyl)benzyl-oxy)-1,2,4-triazin-6-yl)phenol], the midpoint of inhibition, the IC50, lay at 19.8 µM.

For the compound `CCN(Cc1ccccc1)Cc1ccc(COc2ncc(-c3cc(Cl)c(O)c(Cl)c3)nn2)cc1` [Compound 192, 4-(3-(4-((benzyl(ethyl)amino)methyl)benzyloxy)-1,2,4-triazin-6-yl)-2,6-dichlorophenol], the IC50 worked out at 2.13 µM.

`Oc1c(Cl)cc(-c2cnc(OCc3ccc(CN4CCc5ccccc5C4c4ccncc4)cc3)nn2)cc1Cl` (stereo not shown) [Compound 193] registered an IC50 of 3.92 µM.

The compound `Oc1c(Cl)cc(-c2cnc(OCc3ccc(CNC(CN4CCCC4)c4ccccc4)cc3)nn2)cc1Cl` (stereo not shown) [Compound 194, 2,6-dichloro-4-(3-(4-((1-phenyl2-(pyrrolidin-1-yl)ethylamino)methyl)benzyloxy)-1,2,4-triazin-6-yl)phenol] yielded an IC50 of 18.9 µM.

`CN1CCN(CC(NCc2ccc(COc3ncc(-c4cc(Cl)c(O)c(Cl)c4)nn3)cc2)c2ccccc2)CC1` (stereo not shown) [Compound 195, 2,6-dichloro-4-(3-(4-((2-(4-methylpiperazin-1-yl)-1-phenylethylamino)methyl)benzyloxy)-1,2,4-triazin-6-yl)phenol]: the IC50 worked out at 7.47 µM.

Regarding `CN(Cc1ccc(COc2ncc(-c3cc(Cl)c(O)c(Cl)c3)nn2)cc1)C(CN1CCOCC1)c1ccccc1` (stereo not shown) [Compound 196, 2,6-dichloro-4-(3-(4-((methyl(2-morpholino-1-phenylethyl)amino)methyl)benzyloxy)-1,2,4-triazin-6-yl)phenol], the IC50 stood at 5.89 µM.

Consider `CN(Cc1ccc(COc2ncc(-c3cc(Cl)c(O)c(Cl)c3)nn2)cc1)Cc1ccc(-c2ccccn2)cc1` [Compound 197, 2,6-dichloro-4-(3-(4-((methyl(4-(pyridin-2-yl)benzyl)amino)methyl)benzyl-oxy)-1,2,4-triazin-6-yl)phenol], for which half-maximal inhibition (IC50) was put at 2.64 µM.
